Test results: patent US20240261249A1, “NOVEL SQUARAMIDE DERIVATIVE AND USE THEREOF” (PUSAN NATIONAL UNIVERSITY INDUSTRY-UNIVERSITY COOPERATION …, priority 2021, published 2024)

These molecules were tested on Phospho-eIF2α (Ser51) (assay: Phospho-eIF2α (Ser51) Sandwich ELISA in K562 cells). Settings: Homo sapiens, K562, 6 h, serum-free RPMI, 10 μM compound, control = 1, read-out: eIF2α phosphorylation, absorbance standardized to control (DMSO-treated) set to 1, at 10 μM.
Assay type: cell-based
Protocol: Pathscan Phospho-eIF2α (Ser51) Sandwich ELISA Kit #7286 from Cell signaling was used. The K562 cell line was cultured in serum-free RPMI medium at 37° C. in the presence of 5% CO2. Cells were treated with test compounds at a concentration of 10 μM. Six hours after compound treatment, the cells were lysed with a lysis buffer included in the kit to obtain 50 μg of protein by quantification. Afterwards, ELISA assay was performed according to the manufacturer's protocol to obtain absorbance. The absorbance for each obtained compound was standardized to a value of which the control (DMSO-treated) is set to 1.

Row | SMILES | activity at 10 µM [%]
1 | COc1ccccc1Nc1c(N[C@H]2CC[C@H](Oc3ccc(C(F)(F)F)cc3)CC2)c(=O)c1=O [Compound 78, 3-((2-Methoxyphenyl)amino)-4-(((1,4-trans)-4-(4-(trifluoromethyl)phenoxy)cyclohexyl)amino)cyclobut-3-ene-1,2-dione] | 213
2 | COC(=O)c1ccc(Nc2c(N[C@H]3CC[C@H](Oc4ccc(C#N)cc4)CC3)c(=O)c2=O)cc1 [Compound 59, Methyl 4-((2-(((1,4-trans)-4-(4-cyanophenoxy)cyclohexyl)amino)-3,4-dioxocyclobut-1-en-1-yl)amino)benzoate] | 83
3 | O=c1c(Nc2cccc(F)c2)c(N[C@H]2CC[C@H](Oc3ccc(C(F)(F)F)cc3)CC2)c1=O [Compound 13, 3-((3-Fluorophenyl)amino)-4-(((1,4-trans)-4-(4-(trifluoromethyl)phenoxy)cyclohexyl)amino)cyclobut-3-ene] | 84
4 | COc1ccc(Nc2c(N[C@H]3CC[C@H](Oc4ccc(S(C)(=O)=O)cc4)CC3)c(=O)c2=O)cc1 [Compound 57, 3-((4-Methoxyphenyl)amino)-4-(((1,4-trans)-4-(4-(methylsulfonyl)phenoxy)cyclohexyl)amino)cyclobut-3-ene-1,2-dione] | 211
5 | CC(C)(C)c1ccc(Nc2c(N[C@H]3CC[C@H](Oc4ccc([N+](=O)[O-])cc4)CC3)c(=O)c2=O)cc1 [Compound 52, 3-((4-(tert-Butyl)phenyl)amino)-4-(((1,4-trans)-4-(4-nitrophenoxy)cyclohexyl)amino)cyclobut-3-ene-1,2-dione] | 77
6 | O=c1c(Nc2ccc(C(F)(F)F)cc2)c(N[C@H]2CC[C@H](Oc3ccc(C(F)(F)F)cc3)CC2)c1=O [Compound 46, 3-(((1,4-trans)-4-(4-(Trifluoromethyl)phenoxy)cyclohexyl)amino)-4-((4-(trifluoromethyl)phenyl)amino)cyclobut-3-ene-1,2-dione] | 71
7 | N#Cc1ccc(O[C@H]2CC[C@H](Nc3c(Nc4ccc(F)cc4)c(=O)c3=O)CC2)cc1 [Compound 39, 4-(((1,4-trans)-4-((2-((4-Fluorophenyl)amino)-3,4-dioxocyclobut-1-en-1-yl)amino)cyclohexyl)oxy)benzonitrile] | 83
8 | N#Cc1ccc(O[C@H]2CC[C@H](Nc3c(Nc4ccccc4F)c(=O)c3=O)CC2)cc1 [Compound 63, 4-(((1,4-trans)-4-((2-((2-Fluorophenyl)amino)-3,4-dioxocyclobut-1-en-1-yl)amino)cyclohexyl)oxy)benzonitrile] | 75
9 | COC(=O)c1ccc(Nc2c(N[C@H]3CC[C@H](Oc4ccc([N+](=O)[O-])cc4)CC3)c(=O)c2=O)cc1 [Compound 60, Methyl 4-((2-(((1,4-trans)-4-(4-nitrophenoxy)cyclohexyl)amino)-3,4-dioxocyclobut-1-en-1-yl)amino)benzoate] | 97
10 | COc1cccc(Nc2c(N[C@H]3CC[C@H](Oc4ccc(C#N)cc4)CC3)c(=O)c2=O)c1 [Compound 34, 4-(((1,4-trans)-4-((2-((3-Methoxyphenyl)amino)-3,4-dioxocyclobut-1-en-1-yl)amino)cyclohexyl)oxy)benzonitrile] | 83
11 | O=c1c(Nc2ccccc2)c(N[C@H]2CC[C@H](Oc3ccc(C(F)(F)F)cc3)CC2)c1=O [Compound 8, 3-(Phenylamino)-4-(((1,4-trans)-4-(4-(trifluoromethyl)phenoxy)cyclohexyl)amino)cyclobut-3-ene-1,2-dione] | 95
12 | CS(=O)(=O)c1ccc(O[C@H]2CC[C@H](Nc3c(Nc4ccc(F)cc4)c(=O)c3=O)CC2)cc1 [Compound 41, 3-((4-Fluorophenyl)amino)-4-(((1,4-trans)-4-(4-(methylsulfonyl)phenoxy)cyclohexyl)amino)cyclobut-3-ene-1,2-dione] | 62
13 | CC(C)(C)c1ccccc1Nc1c(N[C@H]2CC[C@H](Oc3ccc([N+](=O)[O-])cc3)CC2)c(=O)c1=O [Compound 76, 3-((2-(tert-Butyl)phenyl)amino)-4-(((1,4-trans)-4-(4-nitrophenoxy)cyclohexyl)amino)cyclobut-3-ene-1,2-dione] | 139
14 | O=c1c(Nc2ccccc2Cl)c(N[C@H]2CC[C@H](Oc3ccc(C(F)(F)F)cc3)CC2)c1=O [Compound 66, 3-((2-Chlorophenyl)amino)-4-(((1,4-trans)-4-(4-(trifluoromethyl)phenoxy)cyclohexyl)amino)cyclobut-3-ene-1,2-dione] | 159
15 | COC(=O)c1ccc(Nc2c(N[C@H]3CC[C@H](Oc4ccc(S(C)(=O)=O)cc4)CC3)c(=O)c2=O)cc1 [Compound 61, Methyl 4-((2-(((1,4-trans)-4-(4-(methylsulfonyl)phenoxy)cyclohexyl)amino)-3,4-dioxocyclobut-1-en-1-yl)amino)benzoate] | 148
16 | CC(C)(C)c1ccc(Nc2c(N[C@H]3CC[C@H](Oc4ccc(C(F)(F)F)cc4)CC3)c(=O)c2=O)cc1 [Compound 50, 3-((4-(tert-Butyl)phenyl)amino)-4-(((1,4-trans)-4-(4-(trifluoromethyl)phenoxy)cyclohexyl)amino)cyclobut-3-ene-1,2-dione] | 204
17 | CS(=O)(=O)c1ccc(O[C@H]2CC[C@H](Nc3c(Nc4ccccc4Cl)c(=O)c3=O)CC2)cc1 [Compound 69, 3-((2-Chlorophenyl)amino)-4-(((1,4-trans)-4-(4-(methylsulfonyl)phenoxy)cyclohexyl)amino)cyclobut-3-ene-1,2-dione] | 101
18 | CS(=O)(=O)c1ccc(O[C@H]2CC[C@H](Nc3c(Nc4ccc(Cl)cc4)c(=O)c3=O)CC2)cc1 [Compound 45, 3-((4-Chlorophenyl)amino)-4-(((1,4-trans)-4-(4-(methylsulfonyl)phenoxy)cyclohexyl)amino)cyclobut-3-ene-1,2-dione] | 79
19 | NS(=O)(=O)c1ccc(O[C@H]2CC[C@H](Nc3c(Nc4cccc(F)c4)c(=O)c3=O)CC2)cc1 [Compound 17, 4-(((1,4-trans)-4-((2-((3-Fluorophenyl)amino)-3,4-dioxocyclobut-1-en-1-yl)amino)cyclohexyl)oxy)benzenesulfonamide] | 86
20 | CS(=O)(=O)c1ccc(O[C@H]2CC[C@H](Nc3c(Nc4ccccc4C(F)(F)F)c(=O)c3=O)CC2)cc1 [Compound 73, 3-(((1,4-trans)-4-(4-(Methylsulfonyl)phenoxy)cyclohexyl)amino)-4-((2-(trifluoromethyl)phenyl)amino)cyclobut-3-ene-1,2-dione] | 84
21 | N#Cc1ccc(O[C@H]2CC[C@H](Nc3c(Nc4ccccc4Cl)c(=O)c3=O)CC2)cc1 [Compound 67, 4-(((1,4-trans)-4-((2-((2-Chlorophenyl)amino)-3,4-dioxocyclobut-1-en-1-yl)amino)cyclohexyl)oxy)benzonitrile] | 199
22 | CS(=O)(=O)c1ccc(O[C@H]2CC[C@H](Nc3c(Nc4cccc(F)c4)c(=O)c3=O)CC2)cc1 [Compound 16, 3-((3-Fluorophenyl)amino)-4-(((1,4-trans)-4-(4-(methylsulfonyl)phenoxy)cyclohexyl)amino)cyclobut-3-ene-1,2-dione] | 84
23 | COc1cccc(Nc2c(N[C@H]3CC[C@H](Oc4ccc(S(C)(=O)=O)cc4)CC3)c(=O)c2=O)c1 [Compound 36, 3-((3-Methoxyphenyl)amino)-4-(((1,4-trans)-4-(4-(methylsulfonyl)phenoxy)cyclohexyl)amino)cyclobut-3-ene-1,2-dione] | 60
